Assay results as given in patent US20080318954A1, “Compounds” (Cyclacel Limited, priority 2004, published 2008).

Legend:
[1] = target: T1, DYRK1a (Homo sapiens, UniProt Q13627); experiment: Protein kinase panel selectivity screen, DYRK1a; type: biochemical; settings: 1 μM compound; [ATP] 50 μM
T1 construct: Dundee University (screening panel)
Description: (§1) The names of the 29 kinases comprising the selectivity screen, as well as the ATP concentrations used in each kinase case, are given in Table 5. The kinase assays were carried out as described previously.
(§2) Compound XIV at a concentration of 1 μM was screened in the 29-kinase panel (Dundee University) and the results are shown bellow in Table 6.

[2] = system: PKA; experiment: Protein kinase panel selectivity screen, PKA; type: biochemical; settings: 1 μM compound; [ATP] 5 μM
Description: as §1, §2

[3] = target: T2, MAPKAP-K2 (Homo sapiens, UniProt P49137); experiment: Protein kinase panel selectivity screen, MAPKAP-K2; type: biochemical; settings: 1 μM compound; [ATP] 20 μM
T2 construct: Dundee University (panel)
T2 sequence (P49137 whole entry, species assumed): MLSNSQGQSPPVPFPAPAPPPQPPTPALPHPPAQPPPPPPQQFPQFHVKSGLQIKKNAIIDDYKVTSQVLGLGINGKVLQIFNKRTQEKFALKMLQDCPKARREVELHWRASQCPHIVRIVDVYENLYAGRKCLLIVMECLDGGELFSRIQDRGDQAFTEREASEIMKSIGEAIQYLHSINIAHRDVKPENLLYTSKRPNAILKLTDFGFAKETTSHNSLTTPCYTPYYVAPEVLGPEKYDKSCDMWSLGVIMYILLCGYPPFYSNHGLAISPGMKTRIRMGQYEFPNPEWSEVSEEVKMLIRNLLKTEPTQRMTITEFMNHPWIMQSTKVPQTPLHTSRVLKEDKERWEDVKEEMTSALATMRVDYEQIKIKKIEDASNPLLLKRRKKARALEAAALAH
Description: as §1, §2

[4] = target: T3, SAPK2b/p38b2 (Homo sapiens, UniProt Q15759); experiment: Protein kinase panel selectivity screen, SAPK2b/p38b2; type: biochemical; settings: 1 μM compound; [ATP] 20 μM
T3 construct: Dundee University (panel)
T3 sequence (Q15759 whole entry): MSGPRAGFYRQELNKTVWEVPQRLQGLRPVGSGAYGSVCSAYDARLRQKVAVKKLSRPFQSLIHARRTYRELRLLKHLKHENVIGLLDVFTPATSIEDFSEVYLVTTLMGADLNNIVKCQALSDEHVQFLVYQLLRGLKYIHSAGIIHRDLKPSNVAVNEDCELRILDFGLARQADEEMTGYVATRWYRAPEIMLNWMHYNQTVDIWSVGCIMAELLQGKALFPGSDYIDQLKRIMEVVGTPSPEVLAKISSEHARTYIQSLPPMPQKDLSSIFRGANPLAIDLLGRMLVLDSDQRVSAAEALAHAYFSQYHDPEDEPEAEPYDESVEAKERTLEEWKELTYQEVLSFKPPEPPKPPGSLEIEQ
Description: as §1, §2

[5] = target: T4, PKCa (Homo sapiens, UniProt P17252); experiment: Protein kinase panel selectivity screen, PKCa; type: biochemical; settings: 1 μM compound; [ATP] 20 μM
T4 construct: Dundee University (panel)
Description: as §1, §2

[6] = target: T5, GSK-3β (Oryctolagus cuniculus, UniProt G1T8E2); experiment: GSK-3β kinase assay; type: biochemical, rabbit
T5 construct: isolated from a strain of E. coli that carries a clone expressing GSK-3β derived from a rabbit skeletal muscle cDNA library [34]
T5 sequence (G1T8E2 1-432): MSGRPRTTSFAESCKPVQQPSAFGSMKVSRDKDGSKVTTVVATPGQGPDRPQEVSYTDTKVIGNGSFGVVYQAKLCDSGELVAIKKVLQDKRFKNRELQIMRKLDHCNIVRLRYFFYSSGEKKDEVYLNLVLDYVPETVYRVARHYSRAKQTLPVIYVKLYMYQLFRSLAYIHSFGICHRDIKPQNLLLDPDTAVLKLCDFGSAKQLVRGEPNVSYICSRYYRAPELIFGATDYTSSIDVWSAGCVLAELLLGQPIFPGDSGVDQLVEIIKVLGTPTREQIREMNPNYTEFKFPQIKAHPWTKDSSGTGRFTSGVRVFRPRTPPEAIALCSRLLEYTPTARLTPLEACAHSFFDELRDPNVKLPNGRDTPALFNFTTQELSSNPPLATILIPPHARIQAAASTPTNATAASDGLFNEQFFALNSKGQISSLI
Description: GSK-3 was obtained from New England Biolabs (UK) Ltd., Hitchin, Herts. The recombinant enzyme was isolated from a strain of E. coli that carries a clone expressing GSK-3β derived from a rabbit skeletal muscle cDNA library. Inhibition of GSK-3 function was assessed by measurement of phosphorylation of CREB phosphopeptide KRREILSRRPpSYR in the presence of test compounds. Using a 96-well assay format, GSK3 (7.5 U) was incubated for 30 min at 30° C. in a total volume of 25 μL in 20 mM MOPS pH 7.2, 25 mM β-glycerophosphate, 5 mM EGTA, 1 mM DTT, 1 mM […], 40 μM CREB peptide, 15 mM MgCl2 and 100 μM ATP (containing 0.25 μCi [γ-^32P]-ATP) in the presence of varying concentrations of test compound. The samples were transferred to 96-well p81 filter plates (Whatman Polyfiltronics, Kent, UK), and the plates were washed 4 times with 200 μL/well of 75 mM aq orthophosphoric acid. Scintillation liquid (50 μL) was added to each well, and incorporated radioactivity for each sample was determined using a scintillation counter (TopCount, Packard Instruments, Pangbourne, Berks, UK).

[7] = target: T6, GSK3b (Homo sapiens, UniProt P49841); experiment: Protein kinase panel selectivity screen, GSK3b; type: biochemical; settings: 1 μM compound
T6 construct: Dundee University (panel)
T6 sequence (P49841 whole entry, species assumed): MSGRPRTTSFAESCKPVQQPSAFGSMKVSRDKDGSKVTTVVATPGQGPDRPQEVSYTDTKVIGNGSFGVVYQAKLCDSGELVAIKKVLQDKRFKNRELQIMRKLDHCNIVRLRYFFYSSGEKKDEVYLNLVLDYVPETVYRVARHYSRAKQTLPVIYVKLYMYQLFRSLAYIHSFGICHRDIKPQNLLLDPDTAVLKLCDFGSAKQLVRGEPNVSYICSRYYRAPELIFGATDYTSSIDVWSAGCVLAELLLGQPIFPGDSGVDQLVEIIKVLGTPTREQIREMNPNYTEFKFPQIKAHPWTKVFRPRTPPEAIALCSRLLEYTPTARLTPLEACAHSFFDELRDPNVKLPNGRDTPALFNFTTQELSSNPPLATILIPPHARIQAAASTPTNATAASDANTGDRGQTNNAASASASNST
Description: as §1, §2

[8] = system: Lck; experiment: Protein kinase panel selectivity screen, Lck; type: biochemical; settings: 1 μM compound; [ATP] 50 μM
Description: as §1, §2

[9] = system: ROCK-II; experiment: Protein kinase panel selectivity screen, ROCK-II; type: biochemical; settings: 1 μM compound; [ATP] 20 μM
Description: as §1, §2

[10] = target: T7, CDK1/cyclin B1 (Homo sapiens, UniProt P06493); experiment: CDK/cyclin kinase assay, CDK1/cyclin B1; type: biochemical
T7 construct: His6 (N); made in house; host or cells: Sf9 insect cells (baculovirus)
T7 sequence (P06493 whole entry): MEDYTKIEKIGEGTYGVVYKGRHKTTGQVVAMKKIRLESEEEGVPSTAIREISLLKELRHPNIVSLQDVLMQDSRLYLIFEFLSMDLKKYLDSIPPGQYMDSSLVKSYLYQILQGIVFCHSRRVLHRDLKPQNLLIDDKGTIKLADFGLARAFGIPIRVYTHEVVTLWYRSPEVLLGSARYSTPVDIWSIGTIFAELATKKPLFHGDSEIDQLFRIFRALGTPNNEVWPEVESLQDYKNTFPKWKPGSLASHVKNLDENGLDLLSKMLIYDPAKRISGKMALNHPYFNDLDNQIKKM
T7 sequence (P14635 whole entry partner): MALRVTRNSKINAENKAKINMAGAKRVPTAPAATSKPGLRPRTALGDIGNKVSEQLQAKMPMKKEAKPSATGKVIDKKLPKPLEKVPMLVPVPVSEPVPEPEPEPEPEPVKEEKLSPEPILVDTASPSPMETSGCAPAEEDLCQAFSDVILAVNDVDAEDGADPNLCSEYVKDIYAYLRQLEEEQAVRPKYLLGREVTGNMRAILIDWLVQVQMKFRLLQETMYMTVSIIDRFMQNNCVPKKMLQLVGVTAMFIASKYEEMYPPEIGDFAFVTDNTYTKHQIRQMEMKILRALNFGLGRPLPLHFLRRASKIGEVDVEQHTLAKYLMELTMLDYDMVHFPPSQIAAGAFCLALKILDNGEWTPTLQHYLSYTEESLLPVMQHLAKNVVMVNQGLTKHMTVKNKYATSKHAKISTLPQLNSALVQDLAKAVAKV
Description: (§3) CDK4/cyclin D1, CDK1/cyclin B, CDK2/cyclin E, CDK2/cyclin A, CDK9/cyclin T1 and CDK7/cyclin H, all with a His6 tag on the N-terminus, were expressed in Sf9 insect cells using an appropriate baculovirus construct. Sf9 culture (1.6×10^6 cells/mL) was infected (MOI of 3) for two days. The cells were harvested by low speed centrifugation and the protein was purified from the insect cell pellet by metal affinity chromatography. In short: the insect cell pellet was lysed in Buffer A (10 mM Tris-HCl pH 8.0, 150 mM NaCl, 0.02% NP-40, 5 mM β-mercaptoethanol, 20 mM NaF, 1 mM Na3VO4, and Sigma Protease Inhibitor Cocktail) by sonication. The soluble fraction was cleared by centrifugation and loaded onto Ni-NTA-Agarose (Qiagen). Non-bound protein was washed off with 300 mM NaCl, 5-15 mM imidazole in buffer A and the bound protein was eluted with buffer A supplemented with 250 mM imidazole. The purified proteins were extensively dialyzed against storage buffer (20 mM HEPES pH 7.4, 50 mM NaCl, 2 mM DTT, 1 mM EDTA, 1 mM EGTA, 0.02% NP-40, 10% v/v glycerol) and stored at −70° C.
(§4) Compounds were investigated for their CDK2/cyclin E, CDK2/cyclin A, CDK1/cyclin B, and CDK4/cyclin D1 inhibitory activity. His6-tagged recombinant human cyclin-dependent kinases CDK1/cyclin B1, CDK2/cyclin E, CDK2/cyclin A, and CDK4 were expressed in sf9 insect cells using a baculovirus expression system. Recombinant cyclin D1 was expressed in E. coli. Proteins were purified by metal chelate affinity chromatography to greater than 90% homogeneity. Kinase assays were performed in 96-well plates using recombinant CDK/cyclins. Assays were performed in assay buffer (25 mM β-glycerophosphate, 20 mM MOPS, 5 mM EGTA, 1 mM DTT, 1 mM […], pH 7.4), into which were added 2-4 μg of active enzyme with appropriate substrates (purified histone H1 for CDK1 and CDK2, recombinant GST-retinoblastoma protein (residues 773-928) for CDK4). The reaction was initiated by addition of Mg/ATP mix (15 mM MgCl2+100 μM ATP with 30-50 kBq per well of [γ-^32P]-ATP) and mixtures incubated for 10-45 min, as required, at 30° C. Reactions were stopped on ice, followed by filtration through p81 or GF/C filterplates (for CDK4) (Whatman Polyfiltronics, Kent, UK). After washing 3 times with 75 mM aq orthophosphoric acid, plates were dried, scintillant added and incorporated radioactivity measured in a scintillation counter (TopCount, Packard Instruments, Pangbourne, Berks, UK). Compounds for kinase assays were made up as 10 mM stocks in DMSO and diluted into 10% DMSO in assay buffer. Data was analysed using curve-fitting software (GraphPad Prism version 3.00 for Windows, GraphPad Software, San Diego Calif. USA) to determine IC50 values (concentration of test compound which inhibits kinase activity by 50%).

[11] = target: T8, CHK1 (Homo sapiens, UniProt O14757); experiment: Protein kinase panel selectivity screen, CHK1; type: biochemical; settings: 1 μM compound; [ATP] 20 μM
T8 construct: Dundee University (screening panel)
T8 sequence (O14757 whole entry, species assumed): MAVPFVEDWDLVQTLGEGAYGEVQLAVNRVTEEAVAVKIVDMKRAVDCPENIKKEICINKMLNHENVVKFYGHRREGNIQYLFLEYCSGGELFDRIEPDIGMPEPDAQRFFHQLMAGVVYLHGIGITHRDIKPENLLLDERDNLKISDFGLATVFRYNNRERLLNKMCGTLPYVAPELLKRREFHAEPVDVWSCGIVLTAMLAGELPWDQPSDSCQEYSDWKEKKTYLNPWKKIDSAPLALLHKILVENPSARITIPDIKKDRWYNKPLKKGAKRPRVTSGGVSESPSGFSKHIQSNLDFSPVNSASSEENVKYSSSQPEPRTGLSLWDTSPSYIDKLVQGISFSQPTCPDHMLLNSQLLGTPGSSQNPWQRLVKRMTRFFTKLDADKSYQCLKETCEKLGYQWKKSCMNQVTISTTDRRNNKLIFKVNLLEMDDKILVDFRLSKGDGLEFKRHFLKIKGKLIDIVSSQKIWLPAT
Description: as §1, §2

[12] = target: T9, CDK2/cyclin E (Homo sapiens, UniProt P24941); experiment: CDK/cyclin kinase assay, CDK2/cyclin E; type: biochemical
T9 construct: His6 (N); made in house; host or cells: Sf9 insect cells (baculovirus)
Description: as §3, §4

With `Clc1ccc(Nc2nccc(-c3nccs3)n2)cn1` [Compound XIV, (6-Chloro-pyridin-3-yl)-(4-thiazol-2-yl-pyrimidin-2-yl)-amine] the activity at 1 µM [1] was 74 ± 8%, the “% Activity PKA” value [2] was 76 ± 3% and the activity at 1 µM [3] was 86 ± 7%. The activity at 1 µM [4] was 92 ± 4%, the activity at 1 µM [5] was 76% and the Ki ([6]; read-out: Ki GSK3) was 0.016 µM. For the same compound, the IC50 ([6]; read-out: Kinase inhibition IC50 GSK3β) was 0.176 µM, the “Selectivity in the 29-kinase panel” value [7] was “highly selective for GSK3” and the activity at 1 µM ([7]; [ATP] 5 μM) was 13 ± 5%. The “% Activity Lck” value [8] was 66 ± 5%, the “% Activity ROCK-II” value [9] was 87 ± 6% and the “Fold selectivity for GSK3 over CDK1/cyclin B” value ([10]; from Ki) was >6,250 fold. The Ki ([10]; read-out: Ki CDK1/cyclin B) was over 100 µM, the IC50 ([10]; read-out: Kinase inhibition IC50 CDK1/B1) was over 100 µM and the activity at 1 µM [11] was 78 ± 4%. The Ki [12] was 5.5 µM, the “Selectivity IC50 (CDK2/E)/IC50 (GSK3β)” value [12] was 63 and the “Fold selectivity for GSK3 over CDK2/cyclin E” value ([12]; from Ki) was 345 fold. The IC50 ([12]; read-out: Kinase inhibition IC50 CDK2/E) was 11 µM.
